Measured values: patent US20230321253A1, “BIFUNCTIONAL COMPOUNDS AND PHARMACEUTICAL USES THEREOF” (RISEN (SUZHOU) PHARMA TECH CO., LTD., priority 2022, published 2023)

Molecular target: T1, KRAS-G12D protein (Homo sapiens, UniProt P01116, G12D)
T1 construct: host or cells: Aspc-1 cells
Test: KRAS-G12D protein degradation study in Aspc-1 cells (western blot)
Assay type: cell-based
Conditions: ASPC1, 24 h, Aspc-1 cells treated with 50 nM compound, 24 hours; read-out: Rate of degradation (KRAS^G12D)
Method: Aspc-1 (Cobioer, CBP60546) cells in exponential growth phase were inoculated on a 6-well cell culture plate (Corning, 3516) at density of 1E6/well; and cells in the plate were cultured in 37° C. incubator containing 5% carbon dioxide. The next day, test compounds were dissolved in DMSO (Sigma, RNBF5902) for the preparation of a 10 mM concentration stock solution. The stock solution was diluted with complete medium (RPMI-1640 supplemented with 10% fetal bovine serum, 1% penicillin-streptomycin), yielding working solutions of various concentrations. The plate, after the addition of compounds, was placed in a 5% carbon dioxide incubator, and incubated at 37° C. for 24 hours (final DMSO concentration was 0.1%). The plate was then removed from the incubator, and the cells were washed twice with precooled PBS (Gibco, 14190250), followed by addition of 80 μL RIPA lysis buffer (containing protease inhibitor (Invitrogen™, AM2696)) to each well. The adherent cells were scraped off with a cell scraper, and the cell lysate was transferred to a 1.5 mL centrifuge tube followed with a 30-minute incubation on ice. The lysate was then clarified with centrifugation at 14000 rpm for 10 min at 4° C. The supernatant was transferred into a new 1.5 mL centrifuge tube, and protein concentration was measured with BCA protein detection kit (Thermo Fisher, 23225). KRAS-G12D protein level was assessed by western blot.
A mixture of cell lysate (40 μL) and loading buffer (10 μL 5×SDS (Beyotime, P0015L)) was denatured in a water bath at 95° C. for 10 min. The denatured protein sample, at 30 μL/well, was loaded into the corresponding well of a 4-20% Bis-Tris gel (Kingsley, M00656). Protein samples were initially electrophoresed at 80 V for 30 minutes, followed by 120 V for 40 minutes, until the bromophenol blue strip ran to an appropriate position. After electrophoresis, iBlot2 (Life Technologies, IB21001) was used to transfer the separated samples onto PVDF film. The PVDF membrane was washed with double-distilled water and then blocked in TBST (Thermo Scientific, 28360) buffer containing 5% non-fat milk, for 2 hours. Blocked membrane was rinsed with tris-buffered saline tween-20 (Thermo Scientific, 28360, TBST) three times, 10 minutes each. Membrane was then incubated with 1:1000 diluted KRAS primary antibody (CST, cat #14429S) overnight at 4° C. Membrane was rinsed as described previously followed by 1 hour incubation of secondary antibody at room temperature. After washing the film three times with TBST, ECL color developing solution was applied, and image was captured with Biorad Chemi Doc gel imager. The band gray value was quantified (Image Lab), and protein degradation level was calculated according to the following formula:
Level of RAS protein expression=(RAS-compound/GAPDH)/(RAS-DMSO/GAPDH)
Level of degradation (%)=(1−Rate of RAS protein expression)×100
The symbols “−”, “+”, “++”, and “+++” indicate that the degradation level of KRAS^G12D protein induced by the test compounds was 10% or less, 11 to 30%, 31 to 60%, and greater than 60%, respectively.
Half-maximum degradation concentrations (DC50s) of exemplary test compounds were calculated using GraphPad Prism and their values are shown in Table 6. The symbols “++++”, “+++”, “++” and “+” indicate DC50 equal or less than 10 nM, 11-50 nM, 51-100 nM, and 101-200 nM, respectively.

T1 sequence (P01116 1-188 isoform P01116-2 G12D): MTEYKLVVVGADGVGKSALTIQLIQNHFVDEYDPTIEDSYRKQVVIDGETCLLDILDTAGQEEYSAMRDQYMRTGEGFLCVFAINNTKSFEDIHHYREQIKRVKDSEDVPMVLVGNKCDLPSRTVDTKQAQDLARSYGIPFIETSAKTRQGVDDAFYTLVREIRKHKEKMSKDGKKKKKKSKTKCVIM

SMILES | inhibition at 0.05 µM
C#Cc1c(F)ccc2cc(O)cc(-c3ncc4c(N5CC6CCC(C5)N6)nc(OCC5(CN6CCN(c7ccc(NC8CCC(=O)NC8=O)cc7F)CC6)CC5)nc4c3F)c12 (stereo not drawn) [Compound 124] | 11 to 30%
C#Cc1c(F)ccc2cc(O)cc(-c3ncc4c(N5CC6CCC(C5)N6)nc(OCC5(CN6CCC7(CCN(c8ccc(NC9CCC(=O)NC9=O)cc8F)CC7)C6)CC5)nc4c3F)c12 (stereo not drawn) [Compound 125] | 31 to 60%
C#Cc1c(F)ccc2cc(O)cc(-c3ncc4c(N5CC6CCC(C5)N6)nc(OCC5(CN6CCN(C(=O)CN7CCN(c8ccc(C(=O)NC9CCC(=O)NC9=O)nc8)CC7)CC6)CC5)nc4c3F)c12 (stereo not drawn) [Compound 126] | ≤ 10%
C#Cc1c(F)ccc2cc(O)cc(-c3ncc4c(N5CC6CCC(C5)N6)nc(OCC5(CN6CCC7(CC6)CCN(c6ccc8c(c6)C(=O)N(C6CCC(=O)NC6=O)C8=O)CC7)CC5)nc4c3F)c12 (stereo not drawn) [Compound 127] | > 60%
Cn1nc(C2CCC(=O)NC2=O)c2ccc(C3CCN(CC(=O)N4CCN(CC5(COc6nc(N7CC8CCC(C7)N8)c7cnc(-c8cc(N)cc(Cl)c8C(F)(F)F)c(F)c7n6)CC5)CC4)CC3)cc21 (stereo not drawn) [Compound 128] | > 60%
C#Cc1c(F)ccc2cc(O)cc(-c3ncc4c(N5CC6CCC(C5)N6)nc(OCC5(CN6CC(CN7CCN(c8ccc(C(=O)NC9CCC(=O)NC9=O)nc8)CC7)C6)CC5)nc4c3F)c12 (stereo not drawn) [Compound 134] | 11 to 30%
C#Cc1c(F)ccc2cc(O)cc(-c3ncc4c(N5CC6CCC(C5)N6)nc(OCC5(CN6CCC(CN7CCN(c8ccc(C(=O)NC9CCC(=O)NC9=O)nc8)CC7)CC6)CC5)nc4c3F)c12 (stereo not drawn) [Compound 136] | ≤ 10%
C#Cc1c(F)ccc2cc(O)cc(-c3ncc4c(N5CC6CCC(C5)N6)nc(OCC5(CN(C)C(=O)CC(C)(C)CC(=O)N6CCC(c7ccc8c(C9CCC(=O)NC9=O)nn(C)c8c7)CC6)CC5)nc4c3F)c12 (stereo not drawn) [Compound 137] | ≤ 10%
C#Cc1c(F)ccc2cc(O)cc(-c3ncc4c(N5CC6CCC(C5)N6)nc(OCC5(CN6CC7CN(C(=O)CN8CCC(c9ccc%10c(C%11CCC(=O)NC%11=O)nn(C)c%10c9)CC8)CC7C6)CC5)nc4c3F)c12 (stereo not drawn) [Compound 138] | > 60%
C#Cc1c(F)ccc2cc(O)cc(-c3ncc4c(N5CC6CCC(C5)N6)nc(OCC5(CN6CCC(N7CCC(c8ccc9c(C%10CCC(=O)NC%10=O)nn(C)c9c8)CC7)C(F)(F)C6)CC5)nc4c3F)c12 (stereo not drawn) [Compound 139] | 31 to 60%
C#Cc1c(F)ccc2cc(O)cc(-c3ncc4c(N5CC6CCC(C5)N6)nc(OCC5(CN6CCC(C7CCN(c8ccc(NC9CCC(=O)NC9=O)cc8F)CC7)CC6)CC5)nc4c3F)c12 (stereo not drawn) [Compound 140] | 31 to 60%
C#Cc1c(F)ccc2cc(O)cc(-c3ncc4c(N5CC6CCC(C5)N6)nc(OCC5(CN6CCC(CN7CCN(c8cc9c(cc8F)C(=O)N(C8CCC(=O)NC8=O)C9=O)CC7)CC6)CC5)nc4c3F)c12 (stereo not drawn) [Compound 141] | 11 to 30%
C#Cc1c(F)ccc2cc(O)cc(-c3ncc4c(N5CC6CCC(C5)N6)nc(OCC5(CN6CCC(N7CCN(c8ccc(NC9CCC(=O)NC9=O)cc8F)CC7)CC6)CC5)nc4c3F)c12 (stereo not drawn) [Compound 142] | 31 to 60%
C#Cc1c(F)ccc2cc(O)cc(-c3ncc4c(N5CC6CCC(C5)N6)nc(OC5CCN(CCCCCNC(=O)CO[C@@H]6C[C@H](C)CC[C@H]6C(C)C)C5)nc4c3F)c12 (stereo partly drawn) [Compound 143] | 11 to 30%
C#Cc1c(F)ccc2cc(O)cc(-c3ncc4c(N5CC6CCC(C5)N6)nc(OCC5(CN6CC(CN7CCC(c8ccc9c(C%10CCC(=O)NC%10=O)nn(C)c9c8)CC7)C6)CC5)nc4c3F)c12 (stereo not drawn) [Compound 144] | 31 to 60%
C#Cc1c(F)ccc2cc(O)cc(-c3ncc4c(N5CC6CCC(C5)N6)nc(OCC5(CN6CCN(c7ccc(C(=O)NC8CCC(=O)NC8=O)nc7)CC6)CC5)nc4c3F)c12 (stereo not drawn) [Compound 145] | ≤ 10%
C#Cc1c(F)ccc2cc(O)cc(-c3ncc4c(N5CC6CCC(C5)N6)nc(OCC5(CN6CCC(CC(=O)N7CCC(c8ccc9c(C%10CCC(=O)NC%10=O)nn(C)c9c8)CC7)CC6)CC5)nc4c3F)c12 (stereo not drawn) [Compound 147] | 31 to 60%
C#Cc1c(F)ccc2cc(O)cc(-c3ncc4c(N5CC6CCC(C5)N6)nc(OC5CCN(CCOCCNC(=O)CO[C@@H]6C[C@H](C)CC[C@H]6C(C)C)C5)nc4c3F)c12 (stereo partly drawn) [Compound 148] | ≤ 10%
C#Cc1c(F)ccc2cc(O)cc(-c3ncc4c(N5CC6CCC(C5)N6)nc(OCC5(CN6CCC7(CC6)CC(N6CCN(c8cc9c(cc8F)C(=O)N(C8CCC(=O)NC8=O)C9=O)CC6)C7)CC5)nc4c3F)c12 (stereo not drawn) [Compound 152] | 31 to 60%
C#Cc1c(F)ccc2cc(O)cc(-c3ncc4c(N5CC6CCC(C5)N6)nc(OCC5(CN6CCC7(CC6)CC(N6CCN(c8cccc9c8C(=O)N(C8CCC(=O)NC8=O)C9=O)CC6)C7)CC5)nc4c3F)c12 (stereo not drawn) [Compound 153] | 31 to 60%
C#Cc1c(F)ccc2cc(O)cc(-c3ncc4c(N5CC6CCC(C5)N6)nc(OCC5(CN6CCC(C(=O)Nc7ccc8c(C9CCC(=O)NC9=O)nn(C)c8c7)CC6)CC5)nc4c3F)c12 (stereo not drawn) [Compound 159] | 31 to 60%
C#Cc1c(F)ccc2cc(O)cc(-c3ncc4c(N5CC6CCC(C5)N6)nc(OCC5(CN6CCC7(CC6)CC(N6CC=C(c8cccc9c8n(C)c(=O)n9C8CCC(=O)NC8=O)CC6)C7)CC5)nc4c3F)c12 (stereo not drawn) [Compound 161] | 31 to 60%
C#Cc1c(F)ccc2cc(O)cc(-c3ncc4c(N5CC6CCC(C5)N6)nc(OCC5(CN6CCC7(CC6)CC(N6CCC(c8cccc(C9CCC(=O)NC9=O)c8)CC6)C7)CC5)nc4c3F)c12 (stereo not drawn) [Compound 162] | ≤ 10%
C#Cc1c(F)ccc2cc(O)cc(-c3ncc4c(N5CC6CCC(C5)N6)nc(OCC5(CN6CCC7(CC6)CC(Nc6cccc8c(C9CCC(=O)NC9=O)n[nH]c68)C7)CC5)nc4c3F)c12 (stereo not drawn) [Compound 163] | 31 to 60%
C#Cc1c(F)ccc2cc(O)cc(-c3ncc4c(N5CC6CCC(C5)N6)nc(OCC5(CN6CCC(CNc7cccc8c(C9CCC(=O)NC9=O)nn(C)c78)CC6)CC5)nc4c3F)c12 (stereo not drawn) [Compound 165] | 31 to 60%
C#Cc1c(F)ccc2cc(O)cc(-c3ncc4c(N5CC6CCC(C5)N6)nc(OCC5(CN6CCC7(CC6)CC(N6CCC(c8ccc(C9CCC(=O)NC9=O)cc8)CC6)C7)CC5)nc4c3F)c12 (stereo not drawn) [Compound 166] | > 60%
C#Cc1c(F)ccc2cc(O)cc(-c3ncc4c(N5CC6CCC(C5)N6)nc(OCC5(CN6CCC7(CC6)CC(Nc6ccc8c(C9CCC(=O)NC9=O)nn(C)c8c6)C7)CC5)nc4c3F)c12 (stereo not drawn) [Compound 167] | > 60%

Same assay, conditions: ASPC1, 24 h, Aspc-1 cells treated with 0.1 μM compound, 24 hours; read-out: Rate of protein degradation (KRAS^G12D)

SMILES | inhibition at 0.1 µM
C#Cc1c(F)ccc2cc(O)cc(-c3ncc4c(N5CC6CCC(C5)N6)nc(OCC5(CN6CCN(C7CC(C(=O)N8CCC(c9ccc%10c(C%11CCC(=O)NC%11=O)nn(C)c%10c9)CC8)C7)CC6)CC5)nc4c3F)c12 (stereo not drawn) [Compound 118] | > 60%
C#Cc1c(F)ccc2cc(O)cc(-c3ncc4c(N5CC6CCC(C5)N6)nc(OC5CCN(CCCCCCOc6cc(-c7scnc7C)ccc6CNC(=O)[C@@H]6C[C@@H](O)CN6C(=O)[C@@H](NC(=O)C6(F)CC6)C(C)(C)C)CC5)nc4c3F)c12 [Compound 131] | ≤ 10%
C#Cc1c(F)ccc2cc(O)cc(-c3ncc4c(N5CC6CCC(C5)N6)nc(OCCN5CCN(C(=O)CCCCCOc6cc(-c7scnc7C)ccc6CNC(=O)[C@@H]6C[C@@H](O)CN6C(=O)[C@@H](NC(=O)C6(F)CC6)C(C)(C)C)CC5)nc4c3F)c12 [Compound 132] | 11 to 30%
C#Cc1c(F)ccc2cc(O)cc(-c3ncc4c(N5CC6CCC(C5)N6)nc(OCC5(CN6CCC(CN7CCN(c8cc9c(cc8F)C(=O)N(C8CCC(=O)NC8=O)C9=O)CC7)CC6)CC5)nc4c3F)c12 (stereo not drawn) [Compound 141] | > 60%

Same assay, conditions: Aspc-1 cells treated with 0.1 μM compound, 24 hours

SMILES | Rate of protein degradation (KRAS^G12D)
C#Cc1c(F)ccc2cc(O)cc(-c3ncc4c(N5CC6CCC(C5)N6)nc(OCC5(CN6CCN(C(=O)CN7CCC(c8ccc9c(C%10CCC(=O)NC%10=O)nn(C)c9c8)CC7)CC6)CC5)nc4c3F)c12 (stereo not drawn) [Compound 119] | + (11 to 30%)

Same assay, conditions: Aspc-1 cells; read-out: DC50 of test compound-induced KRAS^G12D protein degradation

SMILES | DC50
C#Cc1c(F)ccc2cc(O)cc(-c3ncc4c(N5CC6CCC(C5)N6)nc(OCC5(CN6CCN(C7CC(C(=O)N8CCC(c9ccc%10c(C%11CCC(=O)NC%11=O)nn(C)c%10c9)CC8)C7)CC6)CC5)nc4c3F)c12 (stereo not drawn) [Compound 118] | < 10 nM
